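Method: 48-hour compound exposure of cells in 96-well plates, five concentrations, linear interpolation of endpoints. GI50 marks 50% less growth.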 The source made the active and inactive calls. No stated cut-off is given here; in the data, active = GI50 up to about 1.1 µM and inactive = higher.
How the values were obtained:
Test in all cases: NCI anticancer screen, dose series, 48 h
DU-145 = test system: DU-145
MDA-N = test system: MDA-N
T47D = test system: T47D
SNB-75 = test system: SNB-75
SF-539 = test system: SF-539
A498 = test system: A498
MDA-MB-435 = test system: MDA-MB-435
SK-MEL-5 = test system: SK-MEL-5
HOP-62 = test system: HOP-62
SR = test system: SR
NCI/ADR-RES = test system: NCI/ADR-RES
MCF7 = test system: MCF7
CAKI-1 = test system: CAKI-1
RPMI-8226 = test system: RPMI-8226
HL-60 = test system: HL-60
NCI-H226 = test system: NCI-H226
BT-549 = test system: BT-549
HT-29 = test system: HT-29
RXF 393 = test system: RXF 393
SK-OV-3 = test system: SK-OV-3
Hs-578T = test system: Hs-578T
TK-10 = test system: TK-10
ACHN = test system: ACHN
SNB-19 = test system: SNB-19
SN12C = test system: SN12C
CCRF-CEM = test system: CCRF-CEM
SK-MEL-28 = test system: SK-MEL-28
HCT-15 = test system: HCT-15
SF-295 = test system: SF-295
OVCAR-8 = test system: OVCAR-8
OVCAR-5 = test system: OVCAR-5
NCI-H23 = test system: NCI-H23
M14 = test system: M14
NCI-H460 = test system: NCI-H460
OVCAR-4 = test system: OVCAR-4
UO-31 = test system: UO-31
SK-MEL-2 = test system: SK-MEL-2
COLO 205 = test system: COLO 205
KM12 = test system: KM12
EKVX = test system: EKVX
HOP-92 = test system: HOP-92
UACC-62 = test system: UACC-62
OVCAR-3 = test system: OVCAR-3
HCT-116 = test system: HCT-116
A549 = test system: A549
LOX IMVI = test system: LOX IMVI
PC-3 = test system: PC-3
UACC-257 = test system: UACC-257
K562 = test system: K562
SF-268 = test system: SF-268
SW-620 = test system: SW-620
IGROV-1 = test system: IGROV-1
NCI-H522 = test system: NCI-H522
Malme-3M = test system: Malme-3M
786-0 = test system: 786-0
U-251 = test system: U-251
MDA-MB-231 = test system: MDA-MB-231
HCC 2998 = test system: HCC 2998
MOLT-4 = test system: MOLT-4

CC1=CC=CC(C)(C)CC1(O[Si](C)(C)C)C(F)(F)F (stereo unspecified)
GI50 (DU-145): > 100000 nM (inactive) | GI50 (MDA-N): > 100000 nM (inactive) | GI50 (T47D): > 100000 nM (inactive) | GI50 (SNB-75): > 100000 nM (inactive) | GI50 (SF-539): > 100000 nM (inactive) | GI50 (A498): > 100000 nM (inactive) | GI50 (MDA-MB-435): > 100000 nM (inactive) | GI50 (SK-MEL-5): > 100000 nM (inactive) | GI50 (HOP-62): > 100000 nM (inactive) | GI50 (SR): > 100000 nM (inactive) | GI50 (NCI/ADR-RES): > 100000 nM (inactive) | GI50 (MCF7): 92700 nM (inactive) | GI50 (CAKI-1): > 100000 nM (inactive) | GI50 (RPMI-8226): > 100000 nM (inactive) | GI50 (HL-60): 28900 nM (inactive) | GI50 (NCI-H226): > 100000 nM (inactive) | GI50 (BT-549): > 100000 nM (inactive) | GI50 (HT-29): 46800 nM (inactive) | GI50 (RXF 393): > 100000 nM (inactive) | GI50 (SK-OV-3): > 100000 nM (inactive) | GI50 (Hs-578T): > 100000 nM (inactive) | GI50 (TK-10): > 100000 nM (inactive) | GI50 (ACHN): > 100000 nM (inactive) | GI50 (SNB-19): > 100000 nM (inactive) | GI50 (SN12C): > 100000 nM (inactive) | GI50 (CCRF-CEM): > 100000 nM (inactive) | GI50 (SK-MEL-28): > 100000 nM (inactive) | GI50 (HCT-15): > 100000 nM | GI50 (SF-295): > 100000 nM (inactive) | GI50 (OVCAR-8): > 100000 nM (inactive) | GI50 (OVCAR-5): > 100000 nM (inactive) | GI50 (NCI-H23): > 100000 nM (inactive) | GI50 (M14): > 100000 nM (inactive) | GI50 (NCI-H460): > 100000 nM (inactive) | GI50 (OVCAR-4): > 100000 nM (inactive) | GI50 (UO-31): > 100000 nM (inactive) | GI50 (SK-MEL-2): > 100000 nM (inactive) | GI50 (COLO 205): 72300 nM (inactive) | GI50 (KM12): > 100000 nM (inactive) | GI50 (EKVX): 82600 nM (inactive) | GI50 (HOP-92): > 100000 nM (inactive) | GI50 (UACC-62): > 100000 nM (inactive) | GI50 (OVCAR-3): > 100000 nM (inactive) | GI50 (HCT-116): > 100000 nM (inactive) | GI50 (A549): 64300 nM (inactive) | GI50 (LOX IMVI): > 100000 nM (inactive) | GI50 (PC-3): > 100000 nM (inactive) | GI50 (UACC-257): > 100000 nM (inactive) | GI50 (K562): 76400 nM (inactive) | GI50 (SF-268): > 100000 nM (inactive) | GI50 (SW-620): > 100000 nM (inactive) | GI50 (IGROV-1): 26600 nM (inactive) | GI50 (NCI-H522): 43300 nM (inactive) | GI50 (Malme-3M): > 100000 nM (inactive) | GI50 (786-0): > 100000 nM (inactive) | GI50 (U-251): 98900 nM (inactive) | GI50 (MDA-MB-231): > 100000 nM (inactive) | GI50 (HCC 2998): > 100000 nM (inactive)

Nc1cc2c(c3ccccc13)C(CCl)CN2C(=O)c1cc2cc(NC(=O)c3cc4ccccc4o3)ccc2[nH]1 (stereo unspecified)
GI50 (DU-145): 0.679 nM (active) | GI50 (MDA-N): 8.17 nM (active) | GI50 (T47D): 1.58 nM (active) | GI50 (SNB-75): 2.94 nM (active) | GI50 (SF-539): 110 nM (active) | GI50 (A498): 1.84 nM (active) | GI50 (MDA-MB-435): 5.5 nM (active) | GI50 (SK-MEL-5): 0.787 nM (active) | GI50 (HOP-62): 0.891 nM (active) | GI50 (SR): 470 nM (active) | GI50 (NCI/ADR-RES): 1.36 nM (active) | GI50 (MCF7): 0.75 nM (active) | GI50 (CAKI-1): 0.301 nM (active) | GI50 (RPMI-8226): 228 nM (active) | GI50 (HL-60): 0.264 nM (active) | GI50 (NCI-H226): 110 nM (active) | GI50 (BT-549): 1.26 nM (active) | GI50 (HT-29): 1.44 nM (active) | GI50 (RXF 393): 110 nM (active) | GI50 (SK-OV-3): 110 nM (active) | GI50 (Hs-578T): 16.9 nM (active) | GI50 (TK-10): 4.29 nM (active) | GI50 (ACHN): 0.492 nM (active) | GI50 (SNB-19): 12.4 nM (active) | GI50 (SN12C): 3.45 nM (active) | GI50 (CCRF-CEM): 1.94 nM (active) | GI50 (SK-MEL-28): 12.3 nM (active) | GI50 (HCT-15): 3.82 nM | GI50 (SF-295): 110 nM (active) | GI50 (OVCAR-8): 0.408 nM (active) | GI50 (OVCAR-5): 7.53 nM (active) | GI50 (NCI-H23): 0.551 nM (active) | GI50 (M14): 4.55 nM (active) | GI50 (NCI-H460): 0.308 nM (active) | GI50 (OVCAR-4): 2.09 nM (active) | GI50 (UO-31): 1.28 nM (active) | GI50 (SK-MEL-2): 2.86 nM (active) | GI50 (COLO 205): 5.6 nM (active) | GI50 (KM12): 2.96 nM (active) | GI50 (EKVX): 110 nM (active) | GI50 (HOP-92): 35.7 nM (active) | GI50 (UACC-62): 3.04 nM (active) | GI50 (OVCAR-3): 8.85 nM (active) | GI50 (HCT-116): 2.54 nM (active) | GI50 (A549): 0.891 nM (active) | GI50 (LOX IMVI): 2.62 nM (active) | GI50 (PC-3): 5.13 nM (active) | GI50 (UACC-257): 6.27 nM (active) | GI50 (SF-268): 1.95 nM (active) | GI50 (SW-620): 4.56 nM (active) | GI50 (IGROV-1): 5.78 nM (active) | GI50 (NCI-H522): 0.925 nM (active) | GI50 (Malme-3M): 2.13 nM (active) | GI50 (786-0): 1.21 nM (active) | GI50 (U-251): 2.81 nM (active) | GI50 (MOLT-4): 0.46 nM (active) | GI50 (MDA-MB-231): 22.1 nM (active) | GI50 (HCC 2998): 3.07 nM (active)

— ChEMBL document CHEMBL1201862, “PubChem BioAssay data set” (2004)
